Earlier results, collected in patent publication US20230001221A1, “Methods of Treating Cancer with Alternating Electric Fields, Checkpoint Inhibitors, and Combination Chemotherapy” (Novocure GmbH, priority 2021, published 2023).

What was measured:
tumor growth = conditions: in-vivo, TTFields added to the chemotherapy
[1] = test system: human and murine pancreatic cancer cell lines; conditions: in-vitro, TTFields combined with the chemotherapy

Row | Structure (SMILES) | inhibition of tumor growth (tumor growth) | cytotoxicity when combined with TTFields [1]
1 | O=c1[nH]cc(F)c(=O)[nH]1 [5-FU, fluorouracil] | significant inhibition of tumor growth | –
2 | Nc1ccn([C@@H]2O[C@H](CO)[C@@H](O)C2(F)F)c(=O)n1 [gemcitabine] | significant inhibition of tumor growth | enhanced cytotoxicity
3 | CCc1c2c(nc3ccc(OC(=O)N4CCC(N5CCCCC5)CC4)cc13)-c1cc3c(c(=O)n1C2)COC(=O)[C@]3(O)CC [irinotecan] | – | enhanced cytotoxicity
